Ten compounds from BindingDB's records for patent US20240124479 (Shanghai Meiyue Biotech Development Co., 2024) can be followed below.

Usually IC50 stands for the midpoint of a concentration-inhibition curve.

SMILES strings stand for the structures.

The assay concerns the target T1, Pantetheinase (Homo sapiens, UniProt O95497).
T1 sequence (O95497 whole entry): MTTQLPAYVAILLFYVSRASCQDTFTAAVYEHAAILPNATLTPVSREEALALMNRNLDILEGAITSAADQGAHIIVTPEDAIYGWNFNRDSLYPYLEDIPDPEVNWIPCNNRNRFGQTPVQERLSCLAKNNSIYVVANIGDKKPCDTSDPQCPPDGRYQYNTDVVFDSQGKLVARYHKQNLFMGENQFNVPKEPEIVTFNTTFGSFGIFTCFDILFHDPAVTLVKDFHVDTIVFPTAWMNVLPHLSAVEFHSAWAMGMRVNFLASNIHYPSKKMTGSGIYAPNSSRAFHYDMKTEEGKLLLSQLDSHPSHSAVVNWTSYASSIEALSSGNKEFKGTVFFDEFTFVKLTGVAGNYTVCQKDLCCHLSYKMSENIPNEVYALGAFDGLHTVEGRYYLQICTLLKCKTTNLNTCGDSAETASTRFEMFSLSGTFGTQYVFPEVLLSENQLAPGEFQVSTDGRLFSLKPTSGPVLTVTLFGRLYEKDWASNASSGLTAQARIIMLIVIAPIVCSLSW
The assay is described as follows: Vanin-1 Recombinant Enzyme Activity Inhibition Assay.
Procedure: A certain mass of the compound was weighed precisely, and prepared with DMSO and reaction buffer (50 mM Tris base, 50 mM KCl, 1.6 mM cysteamine, 0.005% Brij 35, pH 8.0, prepared when using) to a maximum concentration of 10000 nM, then diluted in a 4-fold gradient, and prepared into 10 compound working solutions with different concentrations;for the activity inhibition reaction of recombinant human Vanin-1 (Biorab, JN0618), 2.5 μL of compound working solution and 5 μL of recombinant human Vanin-1 protein were first mixed.
For the compound `O=C(c1cnc(NCc2ccccc2)nc1)N1CCC2(CCOCC2)C1` [US20240124479, Compound 5], the half-inhibitory concentration (IC50) was 65000 pM.

As to `CC(Nc1ncc(C(=O)N2CCC3(CCOCC3)C2)cn1)c1ccccc1` (stereo not given) [US20240124479, Compound 6], the IC50 was 6000 pM.

In the case of `O=C(c1cnc(NCc2ccc(F)cc2F)nc1)N1CCC2(CCOCC2)C1` [US20240124479, Compound 12], the IC50 amounted to 17000 pM.

Turning to `CC(Nc1ncc(C(=O)N2CCC3(CCOCC3)C2)cn1)c1ccc(OC(F)F)cc1Cl` (stereo not given) [US20240124479, Compound 27], the IC50 came out at 400 pM.

As to `C[C@@H](Nc1ncc(C(=O)N2CCC3(CCOCC3)C2)cn1)c1ccc(C(F)(F)F)cc1Cl` [US20240124479, Compound 28], the IC50 amounted to 800 pM.

For the compound `C[C@H](Nc1ncc(C(=O)N2CCC3(CCOCC3)C2)cn1)c1ccc(C(F)(F)F)cc1Cl` [US20240124479, Compound 29], the IC50 was determined as 400 pM.

Take `CC(=O)N(C)[C@H]1CCN(C(=O)c2cnc(NC(C)c3c(F)cccc3C(F)(F)F)nc2)C1` (stereo not given in full) [US20240124479, Compound 38]: the IC50 was found to be 100 pM.

Turning to `CC(=O)N(C)[C@H]1CCN(C(=O)c2cnc(NC(C)c3ccc(F)cc3Cl)nc2)C1` (stereo not given in full) [US20240124479, Compound 39], the IC50 is 1800 pM.

On to `CC(=O)N(C)[C@H]1CCN(C(=O)c2cnc(N[C@H](C)c3ccc(C(F)(F)F)cc3F)nc2)C1` [US20240124479, Compound 41-P2], for which the IC50 was determined as 300 pM.

As to `CC(=O)N(C)[C@H]1CCN(C(=O)c2cnc(NC(C)c3ccc(C(F)(F)F)cc3F)nc2)C1` (stereo not given in full) [US20240124479, Compound 41], the IC50 is 200 pM.
